Data taken from ChEMBL document CHEMBL1629692, “Susceptibility of gram-negative pathogens isolated from patients with complicated intra-abdominal infections in the United States, 2007-2008: results of the Study for Monitoring Antimicrobial Resistance Trends (SMART)” (2010).

Experiments:
Format in all cases: functional
[1] = test system: Citrobacter freundii; assay: Antimicrobial activity against Citrobacter freundii obtained from patient with complicated intra-abdominal infection assessed as percent susceptible isolates by agar dilution method
[2] = test system: Klebsiella aerogenes; assay: Antimicrobial activity against Enterobacter aerogenes obtained from patient with complicated intra-abdominal infection assessed as percent susceptible isolates by agar dilution method
[3] = test system: Enterobacter cloacae; assay: Antimicrobial activity against Enterobacter cloacae obtained from patient with complicated intra-abdominal infection assessed as percent susceptible isolates by agar dilution method
[4] = test system: Escherichia coli; assay: Antimicrobial activity against Escherichia coli obtained from patient with complicated intra-abdominal infection assessed as percent susceptible isolates by agar dilution method
[5] = test system: Escherichia coli; assay: Antimicrobial activity against extended-spectrum beta-lactamase-positive Escherichia coli obtained from patient with complicated intra-abdominal infection assessed as percent susceptible isolates by agar dilution method
[6] = test system: Escherichia coli; assay: Antimicrobial activity against extended-spectrum beta-lactamase-negative Escherichia coli obtained from patient with complicated intra-abdominal infection assessed as percent susceptible isolates by agar dilution method
[7] = test system: Klebsiella pneumoniae; assay: Antimicrobial activity against Klebsiella pneumoniae assessed as percent susceptible isolates by agar dilution method
[8] = test system: Klebsiella pneumoniae; assay: Antimicrobial activity against extended-spectrum beta-lactamase-positive Klebsiella pneumoniae assessed as percent susceptible isolates by agar dilution method
[9] = test system: Klebsiella pneumoniae; assay: Antimicrobial activity against extended-spectrum beta-lactamase-negative Klebsiella pneumoniae assessed as percent susceptible isolates by agar dilution method
[10] = test system: Klebsiella oxytoca; assay: Antimicrobial activity against extended-spectrum beta-lactamase-positive Klebsiella oxytoca assessed as percent susceptible isolates by agar dilution method
[11] = test system: Proteus mirabilis; assay: Antimicrobial activity against extended-spectrum beta-lactamase-positive Proteus mirabilis assessed as percent susceptible isolates by agar dilution method
[12] = test system: Serratia marcescens; assay: Antimicrobial activity against Serratia marcescens assessed as percent susceptible isolates by agar dilution method
[13] = test system: Pseudomonas aeruginosa; assay: Antimicrobial activity against Pseudomonas aeruginosa assessed as percent susceptible isolates by agar dilution method
[14] = test system: Pasteurella sp.; assay: Antimicrobial activity against Pasteurella sp. assessed as percent susceptible isolates by agar dilution method
[15] = test system: Pseudomonas fluorescens; assay: Antimicrobial activity against Pseudomonas fluorescens assessed as percent susceptible isolates by agar dilution method
[16] = test system: Stenotrophomonas maltophilia; assay: Antimicrobial activity against Stenotrophomonas maltophilia assessed as percent susceptible isolates by agar dilution method
[17] = test system: Acinetobacter sp.; assay: Antimicrobial activity against Acinetobacter sp. assessed as percent susceptible isolates by agar dilution method

| SMILES | Activity [1] [%] | Activity [2] [%] | Activity [3] [%] | Activity [4] [%] | Activity [5] [%] | Activity [6] [%] | Activity [7] [%] | Activity [8] [%] | Activity [9] [%] | Activity [10] [%] | Activity [11] [%] | Activity [12] [%] | Activity [13] [%] | Activity [14] [%] | Activity [15] [%] | Activity [16] [%] | Activity [17] [%] |
| --- | --- | --- | --- | --- | --- | --- | --- | --- | --- | --- | --- | --- | --- | --- | --- | --- | --- |
| C[C@@H](O)[C@H]1C(=O)N2C(C(=O)O)=C(S[C@@H]3CN[C@H](C(=O)Nc4cccc(C(=O)O)c4)C3)[C@H](C)[C@H]12 | 94 | 100 | 92 | 99 | 100 | 99 | 96 | 78 | 100 | 100 | 100 | 100 | – | – | – | – | – |
| CO/N=C(\C(=O)N[C@@H]1C(=O)N2C(C(=O)[O-])=C(C[N+]3(C)CCCC3)CS[C@H]12)c1csc(N)n1 | 94 | 100 | – | – | 48 | – | 91 | 47 | 100 | 96 | 100 | 100 | 72 | 23 | 23 | 23 | 23 |
| NCC[C@H](O)C(=O)N[C@@H]1C[C@H](N)[C@@H](O[C@H]2O[C@H](CN)[C@@H](O)[C@H](O)[C@H]2O)[C@H](O)[C@H]1O[C@H]1O[C@H](CO)[C@@H](O)[C@H](N)[C@H]1O [AMIKACIN] | 100 | 100 | 99 | 98 | 71 | 100 | 95 | 69 | 100 | 100 | 100 | 100 | 96 | 31 | 31 | 31 | 31 |
| CO[C@@]1(NC(=O)Cc2cccs2)C(=O)N2C(C(=O)O)=C(COC(N)=O)CS[C@@H]21 [CEFOXITIN] | 17 | 8 | 1 | 93 | 71 | 94 | 84 | 66 | 87 | 96 | 100 | 26 | – | – | – | – | – |
| O=C(O)c1cn(C2CC2)c2cc(N3CCNCC3)c(F)cc2c1=O [CIPROFLOXACIN] | 72 | 96 | – | – | 33 | 82 | 80 | 19 | – | 96 | 97 | 93 | – | 15 | 15 | 15 | 15 |
| C[C@@H](O)[C@H]1C(=O)N2C(C(=O)O)=C(SCCNC=N)C[C@H]12 [IMIPENEM ANHYDROUS] | 100 | 100 | 100 | 100 | 100 | 100 | 99 | 94 | 100 | 100 | 93 | 100 | 78 | 69 | 69 | 69 | 69 |
| C[C@H]1COc2c(N3CCN(C)CC3)c(F)cc3c(=O)c(C(=O)O)cn1c23.C[C@H]1COc2c(N3CCN(C)CC3)c(F)cc3c(=O)c(C(=O)O)cn1c23.O [LEVOFLOXACIN] | 78 | 96 | 88 | 81 | 33 | 83 | 84 | 28 | 96 | 100 | 100 | 93 | 72 | 47 | 47 | 47 | 47 |
